Results on 11 compounds are retold here after patent US20060063782A1, “3-Hetero arylmethoxy ! pyridines and their analogues as p38 map kinase inhibitors” (priority 2002, published 2006).

The target of one test is p38 MAP kinase (Homo sapiens, UniProt Q16539). The test can be described thus: p38 MAP Kinase Assay (33P incorporation into myelin basic protein, filter plate). The test is classed as biochemical. To be noted: Table 1; MKK6-activated p38, MBP substrate, 50 minutes.
p38 MAP kinase, sequence (Q16539 whole entry): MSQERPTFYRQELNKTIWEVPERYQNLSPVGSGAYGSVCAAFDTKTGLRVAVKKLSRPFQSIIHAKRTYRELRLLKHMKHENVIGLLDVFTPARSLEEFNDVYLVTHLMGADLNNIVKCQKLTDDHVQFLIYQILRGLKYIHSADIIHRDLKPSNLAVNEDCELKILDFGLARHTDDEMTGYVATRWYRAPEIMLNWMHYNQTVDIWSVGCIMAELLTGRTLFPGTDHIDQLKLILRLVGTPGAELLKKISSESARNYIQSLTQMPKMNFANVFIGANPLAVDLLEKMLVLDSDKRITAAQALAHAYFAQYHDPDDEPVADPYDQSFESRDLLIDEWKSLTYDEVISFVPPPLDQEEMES
As a reminder, the IC50 is the point on the concentration scale where inhibition reaches its midpoint. On to `O=C(Nc1ccc(Cl)c(COc2ccc(NCCO)nc2)c1)c1cc(F)cc(N2CCOCC2)c1` [Compound 76, N-{4-Chloro-3-[6-(2-hydroxy-ethylamino)-pyridin-3-yloxymethyl]-phenyl}-3-fluoro-5-morpholin-4-yl-benzamide], for which the 50% inhibitory concentration (IC50) is less than 2 µM. On the same count and under the same terms, with `OCCNc1ccc(OCc2ccccc2)cn1` [Compound 45] the figure was less than 200 µM; with `Cc1cc(C)cc(COc2cccnc2N)c1` [Compound 19], less than 200 µM; with `CC(C)(C)c1cc(NC(=O)Nc2ccc(Cl)c(COc3cccnc3)c2)n(-c2ccccc2)n1` [Compound 64, 1-(5-tert-Butyl-2-phenyl-2H-pyrazol-3-yl)-3-[4-chloro-3-(pyridin-3-yloxymethyl)-phenyl]-urea], less than 2 µM.

As for `O=C(Nc1ccc(Cl)c(COc2cccnc2)c1)c1ccnc(N2CCOCC2)c1` [Compound 44, N-[4-Chloro-3-(pyridin-3-yloxymethyl)-phenyl]-2-morpholin-4-yl-isonicotinamide], the IC50 was less than 2 µM.

The test is the same for the next values; noted with them: Table 2; MKK6-activated p38, MBP substrate, 50 minutes.
`O=C(Nc1ccc(Cl)c(COc2cnccn2)c1)c1cc(F)cc(N2CCOCC2)c1` [Compound 94, N-[4-Chloro-3-(pyrazin-2-yloxymethyl)-phenyl]-3-fluoro-5-morpholin-4-yl-benzamide]: the concentration for half-maximal inhibition (IC50) was less than 2 µM. Same read-out and setting: with `CC(C)(C)C(=O)Nc1cnc(OCc2c(Cl)cccc2Cl)cn1` [Compound 167] the figure was less than 200 µM; with `CSc1nnc(NC(=O)Nc2ccc(F)c(COc3cnccn3)c2)s1` [Compound 149, 1-[4-Fluoro-3-(pyrazin-2-yloxymethyl)-phenyl]-3-(5-methylsulfanyl-[1,3,4]thiadiazol-2-yl)-urea], less than 200 µM; with `O=C(CN1CCCCC1)Nc1cnc(OCc2c(Cl)cccc2Cl)cn1` [Compound 172], less than 200 µM.

The compound `Clc1cccc(Cl)c1COc1cnc(N2CCOCC2)cn1` [Compound 152, 4-[5-(2,6-Dichloro-benzyloxy)-pyrazin-2-yl]-morpholine] returned an IC50 of less than 200 µM. In the case of `c1ccc(CNc2cccc(COc3cnccn3)c2)cc1` [Compound 108], the IC50 is less than 1000 µM.

The next test has as its system LPS-induced TNF-α production in THP-1 cells. The test is described as follows: Inhibition of LPS-Induced TNF-α Production in THP-1 Cells (ELISA). The format is cell-based. The settings on record: Homo sapiens; PMA-treated THP-1 cells, 1 μg/ml LPS, 6 hours, TNF-α by ELISA; read-out: IC50 (inhibition of TNF-α release). The procedure:
THP-1 cells were suspended in culture medium containing 50 ng/ml PMA (SIGMA), seeded into a 96-well tissue culture plate (IWAKI) at 1×10^5 cells/well (100 μl/well) and incubated as described above for approximately 48 hours. The medium was then aspirated, the wells washed twice in Phosphate Buffered Saline and 1 μg/ml LPS (SIGMA) in culture medium was added (200 μl/well).
Test compounds were reconstituted in DMSO (SIGMA) and then diluted with the culture medium such that the final DMSO concentration was 0.1%. Twenty microlitre aliquots of test solution or medium only with DMSO (solvent control) were added to triplicate wells immediately following LPS addition, and incubated for 6 hours as described above. Culture supernatants were collected and the amount of human TNF-α present was determined by ELISA (R&D Systems) performed according to the manufacturer's instructions.
The IC50 was defined as the concentration of the test compound corresponding to half maximal inhibition of the control activity by non-linear regression analysis of their inhibition curves.
In the case of `O=C(Nc1ccc(Cl)c(COc2cnccn2)c1)c1cc(F)cc(N2CCOCC2)c1` [Compound 94, N-[4-Chloro-3-(pyrazin-2-yloxymethyl)-phenyl]-3-fluoro-5-morpholin-4-yl-benzamide], the IC50 was found to be 0.21 µM. Still for that read-out and setting: with `O=C(Nc1ccc(Cl)c(COc2ccc(NCCO)nc2)c1)c1cc(F)cc(N2CCOCC2)c1` [Compound 76, N-{4-Chloro-3-[6-(2-hydroxy-ethylamino)-pyridin-3-yloxymethyl]-phenyl}-3-fluoro-5-morpholin-4-yl-benzamide] the figure was 0.97 µM.
